Test results published in PubChem BioAssay (NCI).
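1) Cells in 96-well plates. 2) Compound, 48 h, 5 concentrations. 3) Linear interpolation between surrounding doses. 4) Unreached endpoint = highest concentration. Here, GI50 denotes the concentration required for 50% inhibition of growth. The concentration for full growth arrest is given as TGI.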

Legend:
Assay in all cases: growth of human tumour cells (NCI), 48 h
RPMI-8226 leukemia = test system: RPMI-8226 leukemia
786-0 renal = test system: 786-0 renal
OVCAR-8 ovarian = test system: OVCAR-8 ovarian
TK-10 renal = test system: TK-10 renal
SR leukemia = test system: SR leukemia
HS 578T breast = test system: HS 578T breast
SF-268 CNS = test system: SF-268 CNS
MDA-MB-231 breast = test system: MDA-MB-231 breast
K-562 leukemia = test system: K-562 leukemia
CAKI-1 renal = test system: CAKI-1 renal

Row | Compound | GI50 (RPMI-8226 leukemia) [µM] | TGI (RPMI-8226 leukemia) [µM] | GI50 (786-0 renal) [µM] | TGI (786-0 renal) [µM] | GI50 (OVCAR-8 ovarian) [µM] | TGI (OVCAR-8 ovarian) [µM] | GI50 (TK-10 renal) [µM] | TGI (TK-10 renal) [µM] | GI50 (SR leukemia) [µM] | TGI (SR leukemia) [µM] | GI50 (HS 578T breast) [µM] | TGI (HS 578T breast) [µM] | GI50 (SF-268 CNS) [µM] | TGI (SF-268 CNS) [µM] | GI50 (MDA-MB-231 breast) [µM] | TGI (MDA-MB-231 breast) [µM] | GI50 (K-562 leukemia) [µM] | TGI (K-562 leukemia) [µM] | GI50 (CAKI-1 renal) [µM] | TGI (CAKI-1 renal) [µM]
1 | Cc1cc(N2CCSCC2)nc(NC2CCCC(Nc3ccnc4cc(Cl)ccc34)C2)n1 (centres undefined) | 1.64 | 4.39 | 1.52 | 2.92 | 2.5 | 5.51 | 2.05 | 4.58 | 0.452 | 2.35 | 1.87 | 4.64 | 1.38 | 3.13 | 1.95 | 3.89 | 1.14 | 3.41 |  | 
2 | COc1ccc2nc3cc([N+](=O)[O-])ccc3c(NCCCN(C)C)c2c1 | 0.038 | 0.437 | 0.174 | 1.28 | 0.0895 | 1.59 |  |  | 0.0794 |  | 0.372 | 4.76 | 0.295 | 1.74 | 0.394 | 3.45 | 0.0361 | 0.183 | 1.24 | 3.83
3 | COc1cc(CNc2ccccc2C(=O)N2CCN(C(=O)c3cc(-c4cc(OC)c(OC)c(OC)c4)n4nc(-c5ccccc5)cc4n3)CC2)cc(OC)c1OC |  |  | 4.49 | > 100 | 4.35 | > 100 | 6.85 | > 100 | 0.581 | > 100 | 3.8 | > 100 | 4.89 | > 100 | 7.02 | 67.8 | 1.56 | > 100 | 1.39 | > 100
4 | COc1ccc(/C=N\Nc2ccc([N+](=O)[O-])cn2)cc1OC |  |  | 3.46 | > 100 | > 100 | > 100 | 3.18 | 7.73 | > 100 | > 100 | 21 | > 100 | > 100 | > 100 | 6.82 | > 100 | > 100 | > 100 |  | 
5 | CCCCCCCCCCCCCCCCCC(=O)OCC(COC(=O)CCCN)OC(=O)CCCN (centres undefined) |  |  |  | 34.3 |  | 37.1 |  | 36.7 |  | > 100 |  | 43.7 |  | 45.3 |  | 28.2 |  | > 100 |  | 35.5
6 | Cc1cc(C)c(Cn2cnc3c(Cl)ncnc32)c(C)c1CCl | 24.4 | > 100 | > 100 | > 100 | > 100 | > 100 |  |  | 12.7 | 47.4 | > 100 | > 100 | 79.7 | > 100 | > 100 | > 100 | 44.2 | > 100 |  | 
7 | COc1ccc(C(=O)c2cc3c(N)c(C(=O)Nc4ccc(C)cc4)sc3nc2C)cc1 |  |  | 4.48 | 19.1 | 5.25 | > 100 | 6.81 | 25.2 | 0.525 | > 100 | 2.29 | 17.9 | 5.66 | 48.7 | 2.7 | 13.2 | 1.28 | > 100 | 2.35 | 20.4
8 | CCC(CNc1cc(OC)cc2cccnc12)NC1CCCCC1 (centres undefined) |  |  | 24 | 69.4 | 51.1 | > 100 |  |  | 24.5 | 96.1 | 15.2 | 95.6 | 33.2 | > 100 | 40.7 | > 100 | 7.68 | 53.8 | 21.9 | > 100
9 | CN(C)C(=O)OC(Cn1cncn1)(Cn1cncn1)c1ccc(Cl)cc1Cl |  | > 100 |  | > 100 |  | > 100 |  | > 100 |  |  |  | > 100 |  | > 100 |  | > 100 |  | > 100 |  | > 100
10 | OCC(O)c1nc2ccc3[nH]ncc3c2c2c1CCCC2 (centres undefined) |  |  | 1.77 | > 50 | 1.45 | > 50 | 1.42 | > 50 | 0.658 | 4.52 | 1.4 | 4.26 | 1.22 | 4.64 | 1.75 | > 50 | 1.91 | > 50 | 0.971 | > 50
11 | CCn1c(-c2cc3ccccc3cc2O)nn(C(=O)c2c(Cl)cccc2Cl)c1=S | 13.3 | 46.1 | 10.8 | 27.4 | > 50 | > 50 |  |  | 17.6 | > 50 | 8.76 | 21.5 | > 50 | > 50 | 44.4 | > 50 | 14.3 | > 50 | 21.4 | > 50
12 | CCN(CC)CCCNC(=O)c1c2c(n3ccccc13)C(=O)c1ncccc1C2=O | 3.21 | > 100 | 0.904 | 7.9 | 0.486 | 2.07 |  |  | 0.485 | > 100 | 2.46 | 7.3 | 1.11 | 7.09 | 0.404 | 9.73 | 0.916 | > 100 |  | 
